Source: ChEMBL document CHEMBL4699530, “Isolation, Structural Elucidation, and Anti-HIV Activity of Daphnane Diterpenoids from Daphne odora” (J Nat Prod, 2020)

Assays:
MT4 = assay: Cytotoxicity against human MT4 cells assessed as reduction in cell viability incubated for 4 days by CellTiter-Glo assay; assay type: cell-based; details: MT4, 96 h
[1] = tested on: Human immunodeficiency virus; assay: Antiviral activity against HIV NL4-3 infected in human MT4 cells assessed as suppression of viral replication by measuring reduction in p24 level measured after 4 days by ELISA method; assay type: functional, organism-based; details: Human immunodeficiency virus 1, NL4-3, MT4, 96 h

| Compound | IC50 (MT4) [nM] | EC50 [1] [nM] |
| --- | --- | --- |
| C=C(C)[C@]1(O)C[C@@H](C)[C@@]2(O)[C@@H]([C@H]3O[C@@]4([C@H](O)[C@]3(O)COC(=O)c3ccccc3)[C@@H](OC(=O)/C=C/C=C/C=C/CCC)[C@@H](C)C[C@@H]24)[C@H]1O | > 34 | > 34 |
| C=C(C)[C@@]12O[C@@]3(/C=C/C=C/C=C/CCC)O[C@@H]1[C@@H]1[C@@H]4O[C@]4(CO)[C@@H](O)[C@]4(O)C(=O)C(C)=C[C@H]4[C@@]1(O3)[C@H](C)[C@H]2OC(=O)c1ccccc1 | > 34 | 1.9 |
| C=C(C)[C@@]12O[C@@]3(/C=C/C=C/CCCCC)O[C@@H]1[C@@H]1[C@@H]4O[C@]4(CO)[C@@H](O)[C@]4(O)C(=O)C(C)=C[C@H]4[C@@]1(O3)[C@H](C)[C@H]2OC(=O)/C=C/c1ccc(O)cc1 | > 34 | 7.7 |
| C=C(C)[C@@]12O[C@@]3(/C=C/C=C/C=C/CCC)O[C@@H]1[C@@H]1[C@@H]4O[C@]4(CO)[C@@H](O)[C@]4(O)C(=O)C(C)=C[C@H]4[C@@]1(O3)[C@H](C)[C@H]2OC(=O)/C=C/c1ccc(O)cc1 | > 34 | 1.6 |
| C=C(C)[C@@]1(O)[C@H](OC(=O)/C=C/C=C/CCCCC)[C@@H]2[C@@H]3O[C@]3(CO)[C@@H](O)[C@]3(O)C(=O)C(C)=C[C@H]3[C@@]2(O)[C@H](C)[C@H]1OC(=O)/C=C/c1ccccc1 | > 34 | > 34 |
| C=C(C)[C@@]12O[C@@]3(/C=C/C=C/CCCCC)O[C@@H]1[C@@H]1[C@@H]4O[C@]4(CO)[C@@H](O)[C@]4(O)C(=O)C(C)=C[C@H]4[C@@]1(O3)[C@H](C)[C@H]2OC(=O)c1ccccc1 [GNIDILATIDIN] | > 34 | 1.9 |
| C=C(C)[C@@]1(O)[C@H](OC(=O)/C=C/C=C/C=C/CCC)[C@@H]2[C@@H]3O[C@]3(CO)[C@@H](O)[C@]3(O)C(=O)C(C)=C[C@H]3[C@@]2(O)[C@H](C)[C@H]1OC(=O)/C=C/c1ccc(O)c(OC)c1 | > 34 | > 34 |
| C=C(C)[C@@]12O[C@@]3(/C=C/C=C/CCCCC)O[C@@H]1[C@@H]1[C@@H]4O[C@]4(CO)[C@@H](O)[C@]4(O)C(=O)C(C)=C[C@H]4[C@@]1(O3)[C@H](C)[C@H]2OC(=O)/C=C/c1ccc(O)c(OC)c1 | > 34 | 1.5 |
| C=C(C)[C@@]12O[C@@]3(/C=C/C=C/C=C/CCC)O[C@@H]1[C@@H]1[C@@H]4O[C@]4(CO)[C@@H](O)[C@]4(O)C(=O)C(C)=C[C@H]4[C@@]1(O3)[C@H](C)[C@H]2OC(=O)/C=C/c1ccccc1 | > 34 | 3.7 |
| C=C(C)[C@@]12O[C@@]3(/C=C/C=C/C=C/CCC)O[C@@H]1[C@@H]1[C@@H]4O[C@]4(CO)[C@@H](O)[C@]4(O)C(=O)C(C)=C[C@H]4[C@@]1(O3)[C@H](C)[C@H]2OC(=O)/C=C/c1ccc(O)c(OC)c1 | > 34 | 4.5 |
| C=C(C)[C@@]12O[C@@]3(c4ccccc4)O[C@@H]1[C@@H]1[C@@H]4O[C@]4(CO)[C@@H](O)[C@]4(O)C(=O)C(C)=C[C@H]4[C@@]1(O3)[C@H](C)[C@H]2OC(=O)/C=C/C=C/C=C/CCC | > 34 | 2.3 |
| C=C(C)[C@@]12O[C@@]3(/C=C/C=C/CCCCC)O[C@@H]1[C@@H]1[C@@H]4O[C@]4(CO)[C@@H](O)[C@]4(O)C(=O)C(C)=C[C@H]4[C@@]1(O3)[C@H](C)[C@H]2OC(=O)/C=C/c1ccccc1 | > 34 | 2.2 |
